This note sets out measurements from patent EP0587396A1, “Use of hypoxoside derivatives for the treatment of viral infections” (VIROSTAT (NA) NV, priority 1992, dated 1994).

Like-named read-outs stand apart in the source and are kept apart here.

Series [1] can be described thus: Toxicity: lymphocyte proliferation assay with MTT in the HIV-1 infected PBL cultures. The conditions noted are these: human, pbls. The format is cell-based. The protocol: Possible toxic effects of the test substances were measured by viability testing using Trypan blue or a proliferation assay using3-(4,5-dimethylthiazol-2-yl)-2,5-diphenyl-2H-tetrazolium bromide (MTT) on day 4 or day 6 after initiation of the experiment (Borenfreund et al: Toxicol. In Vitro, 1988, 2, 1-6).
The toxicity of the drug was expressed as a percentage inhibition of lymphocyte proliferation as measured with MTT and compared with controls receiving the virus but no drug.

Series [2] deals with human immunodeficiency virus type 1 (HIV-1). Put plainly: Inhibition of HIV-1 proliferation in PHA-activated human PBL's (p24 core protein by Sandwich ELISA, HIV RNA by labelled DNA probe hybridization). The class given is cell-based. The protocol: Compounds I - XXVIII were subjected to in vitro testing for inhibition of human immunodeficiency virus type 1 (HIV-1) proliferation as follows:
Human peripheral blood lymphocytes (PBL's) obtained by density gradient centrifugation of blood from healthy volunteers at a blood bank were pooled and used for the propagation of HIV-1 in vitro.
The PBL's were polyclonally activated with phytohaemagglutinin (PHA) and subjected to quality controls whereby their viability was tested with Trypan blue exclusion and the expression of activation antigens, CD4⁺ and CD25⁺ was measured by immunofluorescence. Prior to adding the test substance, the activated PBL's were exposed to a standardized titre of HIV-1 virus and after incubation for 60 minutes the cells were washed twice and plated into microtitre plates at a concentration of 2X10⁶ cells/well. The medium contained interleukin-2 and in control wells the virus produced between 50 and 100 ng/mℓ of p24 core protein on day 4. The test substance was added to these cultures either in water or dimethyl sulphoxide (DMSO) depending on solubility characteristics. The final DMSO concentration, when used, was always 1% v/v.
HIV replication was measured as the production of p24 core protein and the production of HIV RNA on days 2, 3 and 4, or on days 3, 4, 5 and 6. Core protein p24 was measured using 'Sandwich ELISA' technology using inter alia a monoclonal antibody against p24 core protein. The HIV RNA was measured using a specific labelled DNA probe against HIV RNA and the process of hybridization.
Results were expressed as percent inhibition of HIV-1 p24 core protein production or RNA production on days 3, 4 or 6.
In each test, cells were also exposed to HIV-1 and 3'-azido-3'-deoxythymidine (also known as Zidovudine or AZT) at 100, 10, 1 and 0.1 ng/mℓ. This was a positive control and compounds tested were compared to the inhibitory effect of 10 ng/mℓ AZT.
In all of the following Tables, percentage inhibition refers to inhibition of p24 core protein production and HIV RNA production relative to infected controls. Percentage AZT inhibition refers to inhibition caused by 10 ng/mℓ AZT at the end of the experiment, i.e. after 4 or 6 days.

Turning to `OC[C@H]1O[C@@H](Oc2ccc(C#CC/C=C/c3ccc(O[C@@H]4O[C@H](CO)[C@@H](O)[C@H](O)[C@H]4O)c(O)c3)cc2O)[C@H](O)[C@@H](O)[C@@H]1O` [Compound V, E-1,5-bis(3'-hydroxy-4'-O-β-D-glucopyranosylphenyl)pent-4-en-1-yne], the viability in series [1] (6.25 µg/mℓ, dissolved in water, standard titre of HIV-1, read-out: Proliferation as a percentage of control value) stood at 94%; in series [1] (6.25 µg/ℓ, viral titre lowered ten-fold, read-out: Proliferation as a percentage of control value) it was 94%; in series [1] (12.5 µg/mℓ, dissolved in water, standard titre of HIV-1, read-out: Proliferation as a percentage of control value), 94%; in series [1] (12.5 µg/ℓ, viral titre lowered ten-fold, read-out: Proliferation as a percentage of control value), 94%; in series [1] (25 µg/mℓ, dissolved in water, standard titre of HIV-1, read-out: Proliferation as a percentage of control value) it was 93%; in series [1] (25 µg/ℓ, viral titre lowered ten-fold, read-out: Proliferation as a percentage of control value), 93%. For the same compound, the viability in series [1] (50 µg/mℓ, dissolved in water, standard titre of HIV-1, read-out: Proliferation as a percentage of control value) came to 82%; in series [1] (50 µg/ℓ, viral titre lowered ten-fold, read-out: Proliferation as a percentage of control value), 82%. In addition, the “% inhibition:p24 core protein” value in series [2] (6.25 µg/mℓ, dissolved in water, after 6 days, standard titre of HIV-1) came to 5%; in series [2] (12.5 µg/mℓ, dissolved in water, after 6 days, standard titre of HIV-1) it was 5%; in series [2] (25 µg/mℓ, dissolved in water, after 6 days, standard titre of HIV-1), 9%; in series [2] (25 µg/ℓ, viral titre lowered ten-fold), 90%. Further, the inhibition at 6.25 µg/mL in series [2] (Human immunodeficiency virus 1, 144 h, read-out: % inhibition: HIV-RNA, 6.25 µg/mℓ, dissolved in water, after 6 days, standard titre of HIV-1) was determined as 42%. Also, the inhibition at 12.5 µg/mL in series [2] (Human immunodeficiency virus 1, 144 h, read-out: % inhibition: HIV-RNA, 12.5 µg/mℓ, dissolved in water, after 6 days, standard titre of HIV-1) stood at 65%. Also, the inhibition at 25 µg/mL in series [2] (Human immunodeficiency virus 1, 144 h, read-out: % inhibition: HIV-RNA, 25 µg/mℓ, dissolved in water, after 6 days, standard titre of HIV-1) is 83%. For the same compound, the inhibition at 50 µg/mL in series [2] (Human immunodeficiency virus 1, 144 h, read-out: % inhibition: HIV-RNA, 50 µg/mℓ, dissolved in water, after 6 days, standard titre of HIV-1) was determined as 100%. Besides, the inhibition at 0.00625 µg/mL in series [2] (Human immunodeficiency virus 1, read-out: % inhibition:HIV-RNA, 6.25 µg/ℓ, viral titre lowered ten-fold) was 0%. Besides, the inhibition at 0.0125 µg/mL in series [2] (Human immunodeficiency virus 1, read-out: % inhibition:HIV-RNA, 12.5 µg/ℓ, viral titre lowered ten-fold) stood at 11%. Moreover, the inhibition at 0.025 µg/mL in series [2] (Human immunodeficiency virus 1, read-out: % inhibition:HIV-RNA, 25 µg/ℓ, viral titre lowered ten-fold) is 97%. The inhibition at 0.05 µg/mL in series [2] (Human immunodeficiency virus 1, read-out: % inhibition:HIV-RNA, 50 µg/ℓ, viral titre lowered ten-fold) worked out at 99%.

In the case of `O=S(=O)(O)Oc1ccc(C#CC/C=C/c2ccc(OS(=O)(=O)O)cc2)cc1` [Compound XVIII], the viability in series [1] (50 µg/mℓ, Table 10 (6 days), read-out: Proliferation as a percentage of control value) is 63%; in series [1] (100 µg/mℓ, Table 10 (6 days), read-out: Proliferation as a percentage of control value), 50%. Also, the “% inhibition:p24 core protein” value in series [2] (50 µg/mℓ, after 6 days) came out at 79%. Moreover, in series [2] (Human immunodeficiency virus 1, 144 h, read-out: % inhibition:HIV-RNA, 50 µg/mℓ, after 6 days), the inhibition at 50 µg/mL is 87%. In addition, the inhibition at 100 µg/mL in series [2] (Human immunodeficiency virus 1, 144 h, read-out: % inhibition:HIV-RNA, 100 µg/mℓ, after 6 days) was found to be 100%.
